The target of this assay is T1, human αVβ6 (Homo sapiens, UniProt P06756+P18564).
T1 construct: purchased R & D systems 3817-AV
T1 sequence (P06756 31-992 limits assumed): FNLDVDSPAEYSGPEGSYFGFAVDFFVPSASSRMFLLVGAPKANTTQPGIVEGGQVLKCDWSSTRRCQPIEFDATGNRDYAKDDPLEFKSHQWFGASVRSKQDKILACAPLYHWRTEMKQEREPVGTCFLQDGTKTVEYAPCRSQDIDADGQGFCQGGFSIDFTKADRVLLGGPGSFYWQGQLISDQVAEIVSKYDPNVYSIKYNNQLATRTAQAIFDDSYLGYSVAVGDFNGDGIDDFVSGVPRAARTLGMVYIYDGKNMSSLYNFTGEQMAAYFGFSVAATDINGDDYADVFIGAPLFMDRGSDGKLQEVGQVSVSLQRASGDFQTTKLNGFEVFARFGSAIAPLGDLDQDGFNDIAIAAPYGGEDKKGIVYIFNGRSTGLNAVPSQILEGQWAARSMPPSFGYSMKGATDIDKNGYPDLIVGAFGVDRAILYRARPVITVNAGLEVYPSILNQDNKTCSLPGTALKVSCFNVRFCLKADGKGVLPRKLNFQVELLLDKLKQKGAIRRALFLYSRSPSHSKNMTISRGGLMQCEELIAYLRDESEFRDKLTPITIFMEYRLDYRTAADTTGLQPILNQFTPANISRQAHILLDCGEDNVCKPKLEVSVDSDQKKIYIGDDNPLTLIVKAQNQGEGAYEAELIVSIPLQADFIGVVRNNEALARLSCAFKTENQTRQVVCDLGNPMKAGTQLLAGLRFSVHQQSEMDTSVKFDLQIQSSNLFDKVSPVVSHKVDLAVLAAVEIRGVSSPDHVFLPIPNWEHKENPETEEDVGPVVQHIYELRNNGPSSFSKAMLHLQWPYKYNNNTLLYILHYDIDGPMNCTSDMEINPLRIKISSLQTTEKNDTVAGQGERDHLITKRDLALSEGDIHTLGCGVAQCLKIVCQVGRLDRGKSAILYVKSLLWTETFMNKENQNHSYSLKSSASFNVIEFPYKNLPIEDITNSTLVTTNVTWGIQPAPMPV
T1 sequence (P18564 22-707 limits assumed): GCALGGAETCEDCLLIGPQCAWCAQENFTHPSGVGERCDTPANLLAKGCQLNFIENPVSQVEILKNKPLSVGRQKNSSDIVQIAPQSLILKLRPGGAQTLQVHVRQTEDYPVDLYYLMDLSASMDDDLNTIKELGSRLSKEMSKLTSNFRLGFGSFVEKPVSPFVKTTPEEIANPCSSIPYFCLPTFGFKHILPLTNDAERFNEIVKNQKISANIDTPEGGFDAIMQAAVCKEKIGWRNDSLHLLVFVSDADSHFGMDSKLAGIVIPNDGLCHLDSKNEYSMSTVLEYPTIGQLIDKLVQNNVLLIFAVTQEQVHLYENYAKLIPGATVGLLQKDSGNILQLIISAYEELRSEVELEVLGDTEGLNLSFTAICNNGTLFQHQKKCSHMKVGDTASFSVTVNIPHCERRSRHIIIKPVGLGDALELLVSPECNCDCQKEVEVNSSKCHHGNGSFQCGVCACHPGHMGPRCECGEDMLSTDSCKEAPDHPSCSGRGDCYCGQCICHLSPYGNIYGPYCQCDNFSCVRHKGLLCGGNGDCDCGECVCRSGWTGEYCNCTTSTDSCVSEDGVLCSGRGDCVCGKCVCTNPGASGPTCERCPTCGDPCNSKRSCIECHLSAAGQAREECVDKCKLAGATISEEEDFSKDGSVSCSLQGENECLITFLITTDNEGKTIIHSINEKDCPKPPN
Briefly: human αVβ6 HTRF binding assay. The conditions noted are these: recombinant human αVβ6 integrin, FITC-conjugated fibronectin. The protocol: All binding assays used the HTRF (homogeneous time resolved fluorescence) technology from Cisbio International, therefore all assays are described as HTRF binding assays. The assay results for the Examples are listed above together with the characterization data. The HTRF binding assays are established for the following integrins: human αVβ6, human αVβ1, human αVβ3, human αVβ5, and human αVβ8. All assays used the following assay buffer: 20 mM Tris, pH 7.4, 1 mM MgCl2, 1 mM MnCl2, 0.01% Tween 20, and 0.01% BSA. Alternatively, a SPA-based assay was used for evaluation of receptor binding.
The following describes the components and a representative procedure for the human αVβ6 HTRF binding assay: Recombinant human αVβ6 Integrin (R & D systems, 3817-AV) was biotinylated. Biotinylated human αVβ6 Integrin was added to assay vessel at a final concentration of 1.25 nM. FITC-conjugated fibronectin (Cytoskeleton, FNR02) was then added at the final concentration of 5 nM. The mixture was centrifuged at 600 rpm for three minutes using Thermo Fisher Heraeus Multifuge X3 centrifuge and then incubated at RT for an hour. Streptavidin Terbium (Cisbio international 610STLB) was then added at the final concentration of 0.625 nM. The resulting mixture was centrifuged at 600 rpm for three minutes using Thermo Fisher Heraeus Multifuge X3 centrifuge and then incubated at room temperature overnight in dark before reading HTRF signals.
(In general: Time-resolved FRET reads energy transfer from a long-lived donor to a nearby acceptor.)
Broadly, the IC50 is the concentration at which inhibition is half-maximal. With `O=C(NC(Cc1cnn(CCc2ccc3c(n2)NCCC3)c1)C(=O)O)OCc1ccccc1` (racemic) [Example 5, (±)-2-(((Benzyloxy)carbonyl)amino)-3-(1-(2-(5,6,7,8-tetrahydro-1,8-naphthyridin-2-yl)ethyl)-1H-pyrazol-4-yl)propanoic acid], the IC50 turned out to be 5000 nM.

Turning to `COc1ccc(C(CC(=O)O)c2ncc(CCCc3ccc4c(n3)NCCC4)s2)cn1` (single isomer, unassigned) [Example 19, 3-(6-Methoxypyridin-3-yl)-3-(5-(3-(5,6,7,8-tetrahydro-1,8-naphthyridin-2-yl)propyl)thiazol-2-yl)propanoic acid], the IC50 came to 44 nM.

`COc1ccc(C(CC(=O)O)c2cnn(CCCCc3ccc4c(n3)NCCC4)c2)cc1F` (stereo not shown) [Example 44, 3-(3-fluoro-4-methoxyphenyl)-3-(1-(4-(5,6,7,8-tetrahydro-1,8-naphthyridin-2-yl)butyl)-1H-pyrazol-4-yl)propanoic acid]: the IC50 was 64 nM.

With `COc1ccc(C(CC(=O)O)c2ncc(CCCc3ccc4c(n3)NCCC4)s2)cc1F` (single isomer, unassigned) [Example 42, 3-(3-Fluoro-4-methoxyphenyl)-3-(5-(3-(5,6,7,8-tetrahydro-1,8-naphthyridin-2-yl)propyl)thiazol-2-yl)propanoic acid], the IC50 is 28 nM.

Take `COc1ccc(C(CC(=O)O)c2csc(CCCc3ccc4c(n3)NCCC4)n2)cc1F` (stereo not shown) [Example 153, 3-(3-fluoro-4-methoxyphenyl)-3-(2-(3-(5,6,7,8-tetrahydro-1,8-naphthyridin-2-yl)propyl)thiazol-4-yl)propanoic acid]: the IC50 worked out at 54 nM.

Regarding `Cc1cc(C)n(C(CC(=O)O)c2nc(CCCc3ccc4c(n3)NCCC4)cs2)n1` (single isomer, unassigned) [Example 163, 3-(3,5-dimethyl-1H-pyrazol-1-yl)-3-(4-(3-(5,6,7,8-tetrahydro-1,8-naphthyridin-2-yl)propyl)thiazol-2-yl)propanoic acid], the IC50 was 220 nM.

On to `Cc1cncc(C(CC(=O)O)n2ccc(CCCc3ccc4c(n3)NCCC4)n2)c1` (single isomer, unassigned) [Example 70, 3-(5-methylpyridin-3-yl)-3-{3-[3-(5,6,7,8-tetrahydro-1,8-naphthyridin-2-yl)propyl]-1H-pyrazol-1-yl}propanoic acid], for which the IC50 was determined as 4900 nM.

With `COc1cncc(C(CC(=O)O)n2ccc(CCCc3ccc4c(n3)NCCCC4)n2)c1` (racemic) [Example 107, (±)-3-(5-methoxypyridin-3-yl)-3-(3-(3-(6,7,8,9-tetrahydro-5H-pyrido[2,3-b]azepin-2-yl)propyl)-1H-pyrazol-1-yl)propanoic acid], the IC50 amounted to 4.9 nM.

As for `COc1ncc(C(CC(=O)O)n2ccc(CCCc3ccc4c(n3)NCCCC4)n2)cn1` (racemic) [Example 103, (±)-3-(2-methoxypyrimidm-5-yl)-3-(3-(3-(6,7,8,9-tetrahydro-5H-pyrido| 2,3-6 |azepin-2-yl)propyl)-1H-pyrazol-1-yl)propanoic acid], the IC50 is 30 nM.

With `COc1ccc(C(CC(=O)O)n2ncc(CCCc3ccc4c(n3)NCCC4)n2)cc1F` (single isomer, unassigned) [Example 172, 3-(3-fluoro-4-methoxyphenyl)-3-(4-(3-(5,6,7,8-tetrahydro-1,8-naphthyridin-2-yl)propyl)-2H-1,2,3-triazol-2-yl)propanoic acid], the IC50 is 53 nM.

Turning to `Cc1ncc([C@H](CC(=O)O)n2ccc(CCC[C@H]3CCc4cccnc4N3)n2)cn1` [Example 86, (S)-3-(2-methylpyrimidin-5-yl)-3-(3-(3-((S)-1,2,3,4-tetrahydro-1,8-naphthyridin-2-yl)propyl)-1H-pyrazol-1-yl)propanoic acid], the IC50 was 270 nM.

Turning to `Cc1cncc(C(CC(=O)O)c2nc(CCCc3ccc4c(n3)NCCC4)cs2)c1` (single isomer, unassigned) [Example 150, 3-(5-methylpyridin-3-yl)-3-(4-(3-(5,6,7,8-tetrahydro-1,8-naphthyridin-2-yl)propyl)thiazol-2-yl)propanoic acid], the IC50 was found to be 87 nM.

Turning to `COc1ncc(C(CC(=O)O)n2ccc(CCCc3ccc4c(n3)NCCCC4)n2)cn1` (single isomer, unassigned) [Example 105], the IC50 stood at 470 nM.

For `O=C(O)C[C@@H](c1ccc(=O)n(Cc2ccccc2)c1)n1ccc(CCCc2ccc3c(n2)NCCC3)n1` [Example 109, (S)-3-(1-benzyl-6-oxo-1,6-dihydropyridin-3-yl)-3-(3-(3-(5,6,7,8-tetrahydro-1,8-naphthyridin-2-yl)propyl)-1H-pyrazol-1-yl)propanoic acid], the IC50 was found to be 4.2 nM.

Take `COc1ccc(C(CC(=O)O)c2nc(CCCCc3ccc4c(n3)NCCC4)cs2)cc1OC` (single isomer, unassigned) [Example 124, 3-(3,4-dimethoxyphenyl)-3-(4-(4-(5,6,7,8-tetrahydro-1,8-naphthyridin-2-yl)butyl)thiazol-2-yl)propanoic acid]: the IC50 is 2.5 nM.

Regarding `COc1ccc(C(CC(=O)O)c2nc(CCCc3ccc4c(n3)NCCC4)cs2)cc1F` (single isomer, unassigned) [Example 39, 3-(3-Fluoro-4-methoxyphenyl)-3-(4-(3-(5,6,7,8-tetrahydro-1,8-naphthyridin-2-yl)propyl)thiazol-2-yl)propanoic acid], the IC50 turned out to be 23 nM.

Regarding `COc1cncc(C(CC(=O)O)n2nccc2CCCc2ccc3c(n2)NCCCC3)c1` (racemic) [Example 108, (±)-3-(5-methoxypyridin-3-yl)-3-(5-(3-(6,7,8,9-tetrahydro-5H-pyrido[2,3-b]azepin-2-yl)propyl)-1H-pyrazol-1-yl)propanoic acid], the 50% inhibitory concentration (IC50) was determined as 170 nM.

In the case of `COc1ncc(C(CC(=O)O)n2ncc(CCCc3ccc4c(n3)NCCC4)n2)cn1` (single isomer, unassigned) [Example 177, 3-(2-methoxypyrimidin-5-yl)-3-(4-(3-(5,6,7,8-tetrahydro-1,8-naphthyridin-2-yl)propyl)-2H-1,2,3-triazol-2-yl)propanoic acid], the IC50 was 315 nM.

Regarding `Cc1ncc(C(CC(=O)O)n2nccc2CCC[C@H]2CCc3cccnc3N2)cn1` (stereo partly drawn) [Example 87, 3-(2-methylpyrimidin-5-yl)-3-(5-(3-((S)-1,2,3,4-tetrahydro-1,8-naphthyridin-2-yl)propyl)-1H-pyrazol-1-yl)propanoic acid], the IC50 was found to be 1380 nM.

`O=C(O)CC(c1cnc2ccccc2c1)n1ncc(CCCc2ccc3c(n2)NCCC3)n1` (single isomer, unassigned) [Example 175, 3-(quinolin-3-yl)-3-(4-(3-(5,6,7,8-tetrahydro-1,8-naphthyridin-2-yl)propyl)-2H-1,2,3-triazol-2-yl)propanoic acid]: the IC50 was determined as 4.3 nM.

Consider `CN(C)C(=O)c1ccc(C(CC(=O)O)c2nc(CCCc3ccc4c(n3)NCCC4)cs2)cc1F` (single isomer, unassigned) [Example 136, 3-(4-(dimethylcarbamoyl)-3-fluorophenyl)-3-(4-(3-(5,6,7,8-tetrahydro-1,8-naphthyridin-2-yl)propyl)thiazol-2-yl)propanoic acid], for which the IC50 came out at 12 nM.

`COc1ccc(C(CC(=O)O)c2cnn(CCCc3ccc4c(n3)NCCC4)c2)cn1` (racemic) [Example 7, (±)-3-(6-Methoxypyridin-3-yl)-3-(1-(3-(5,6,7,8-tetrahydro-1,8-naphthyridin-2-yl)propyl)-1H-pyrazol-4-yl)propanoic acid]: the IC50 stood at 323 nM.

For the origin of these results see US11884661B2, “3-substituted propionic acids as αV integrin inhibitors” (BRISTOL-MYERS SQUIBB COMPANY, priority 2016, dated 2024).
